Laboratory results published in patent US7230010B2, “1,2,4-triazole derivative, method for preparing the same, and pharmaceutical composition containing the same” (CJ Corp., priority 2002, dated 2007).

What was measured:
[1] = biological target: T1, COX-2 (Mus musculus, UniProt Q05769); assay: Assay for the COX-2 inhibitory activity using RAW 264.7 cell line; assay type: cell-based; conditions: RAW264.7; 10 nM test compound; PGE2 in RAW 264.7 cells treated with interferon γ and LPS, 18 hours; read-out: Cyclooxygenase (COX) Inhibition (%) COX-2 (10 nM)
T1 construct: host or cells: RAW 264.7 cells, aspirin-pretreated, induced with interferon γ and LPS
T1 sequence (Q05769 18-604): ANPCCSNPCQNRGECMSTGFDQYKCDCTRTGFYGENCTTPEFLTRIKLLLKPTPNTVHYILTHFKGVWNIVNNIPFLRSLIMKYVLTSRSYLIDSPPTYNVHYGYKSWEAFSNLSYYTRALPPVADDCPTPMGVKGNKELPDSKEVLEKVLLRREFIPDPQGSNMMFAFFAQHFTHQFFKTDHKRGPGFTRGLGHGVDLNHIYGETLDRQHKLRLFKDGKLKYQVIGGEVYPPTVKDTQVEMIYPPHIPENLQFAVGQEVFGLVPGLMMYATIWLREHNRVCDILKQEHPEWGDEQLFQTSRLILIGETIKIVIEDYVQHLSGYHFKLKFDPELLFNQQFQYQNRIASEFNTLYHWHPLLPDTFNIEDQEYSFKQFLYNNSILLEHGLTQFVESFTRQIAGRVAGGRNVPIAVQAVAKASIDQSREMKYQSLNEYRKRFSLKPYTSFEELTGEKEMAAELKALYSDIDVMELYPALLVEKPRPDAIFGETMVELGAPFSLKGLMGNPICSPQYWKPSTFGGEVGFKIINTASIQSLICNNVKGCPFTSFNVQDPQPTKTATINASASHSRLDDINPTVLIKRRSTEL
Protocol: Each well was treated with 250 μM of aspirin and incubated at 37° C. for 2 hours. After the culture media were replaced with new culture media, the new culture media were treated with a test compound (10 nM) and incubated for 30 minutes. Then, each well was treated with interferon γ (100 units/ml) and lipopolysaccharide (LPS, 100 ng/ml) and incubated for 18 hours. The culture media were transferred to other test tubes. The concentration of PGE2 was quantified by means of the EIA kit (Cayman Chemicals).
(§1) % Inhibition=(concentration of PGE2 in test compound-untreated sample−concentration of PGE2 in test compound-treated sample)/(concentration of PGE2 in test compound-untreated sample)×100

[2] = biological target: T2, COX-1 (Homo sapiens, UniProt P23219); assay: Assay for the COX-1 inhibitory activity using U-937; assay type: cell-based; conditions: 1 μM test compound; PGE2 inhibition in U-937 human lymphoma cells vs DMSO control; read-out: Cyclooxygenase (COX) Inhibition (%) COX-1 (1 μM)
T2 construct: host or cells: U-937 human lymphoma cells
T2 sequence (P23219 24-599): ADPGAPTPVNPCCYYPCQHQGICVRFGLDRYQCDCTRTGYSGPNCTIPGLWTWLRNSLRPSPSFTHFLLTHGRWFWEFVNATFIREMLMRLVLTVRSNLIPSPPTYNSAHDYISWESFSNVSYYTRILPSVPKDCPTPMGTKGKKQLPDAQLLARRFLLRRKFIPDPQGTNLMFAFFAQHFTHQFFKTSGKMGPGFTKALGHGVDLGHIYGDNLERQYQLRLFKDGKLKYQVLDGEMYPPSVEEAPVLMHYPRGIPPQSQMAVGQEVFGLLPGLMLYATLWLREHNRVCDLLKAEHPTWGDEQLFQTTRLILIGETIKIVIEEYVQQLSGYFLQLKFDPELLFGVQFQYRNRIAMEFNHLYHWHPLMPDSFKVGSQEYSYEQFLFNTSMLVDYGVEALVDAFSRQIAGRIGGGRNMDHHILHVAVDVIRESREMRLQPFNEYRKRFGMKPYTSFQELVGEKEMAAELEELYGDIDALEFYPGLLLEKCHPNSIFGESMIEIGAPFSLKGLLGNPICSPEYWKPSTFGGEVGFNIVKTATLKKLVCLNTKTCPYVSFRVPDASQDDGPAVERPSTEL
Protocol: The collected cells were diluted with HBSS (x1, Hank's balanced salt solution) to a concentration of 1×10^6 cells/ml. 1 ml of the dilute cell solution was placed into each well of 12-well plates. 5 μl of 1 μM solution of a test compound in DMSO and 5 μl of DMSO as a control were added to the wells. The wells were incubated in CO2 incubator at 37° C. for 15 minutes. Separately, 10 mM stock solution of arachidonic acid in ethanol was diluted ten times in ethanol to prepare 1 mM solution of arachidonic acid. Arachidonic acid acts as a substrate. 10 μl of the 1 mM solution of arachidonic acid was added to each well and incubated at CO2 incubator at 37° C. for 30 minutes. The cell solution of each well was placed in a centrifuge test tube and centrifuged at 10,000 rpm at 4° C. for 5 minutes. The concentration of PGE2 in the collected cells and the supernatant was quantified by means of a monoclonal kit (Cayman Chemicals). The percentages of PGE2 inhibition in a group of the test compound-treated cells in relation to a group of the DMSO-treated cells were calculated. Based on the calculated values, the COX-1 inhibitory activities were evaluated.
as §1

Structure (SMILES) | inhibition at 0.01 µM [1] [%] | inhibition at 1 µM [2] [%]
CS(=O)(=O)c1ccc(-n2nc(C(F)(F)F)nc2-c2cc3ccccc3[nH]2)cc1 [Example 12, 2-[2-(4-methylsulfonylphenyl)-5-trifluoromethyl-2H-1,2,4-triazole-3-yl]-1H-indole] | 5.67 | 26.3
Cn1cc(-c2nc(C(F)(F)F)nn2-c2ccc(S(C)(=O)=O)cc2)c2ccccc21 [Example 14, 1-methyl-3-[2-(4-methylsulfonylphenyl)-5-trifluoromethyl-2H-1,2,4-triazole-3-yl]-1H-indole] | 6.02 | 21.3
CS(=O)(=O)c1ccc(-n2nc(C(F)(F)F)nc2-c2cc3ccccc3o2)cc1 [Example 11, 5-(benzofuran-2-yl)-1-(4-methylsulfonylphenyl)-3-trifluoromethyl-1H-1,2,4-triazole] | 10.6 | 24.3
CS(=O)(=O)c1ccc(-n2nc(C(F)(F)F)nc2-c2ccc3ccccc3n2)cc1 [Example 15, 2-[2-(4-methylsulfonylphenyl)-5-trifluoromethyl-2H-1,2,4-triazole-3-yl]quinoline] | 5.42 | 22.3
Cn1c(-c2nc(C(F)(F)F)nn2-c2ccc(S(C)(=O)=O)cc2)cc2ccccc21 [Example 13, 1-methyl-2-[2-(4-methylsulfonylphenyl)-5-trifluoromethyl-2H-1,2,4-triazole-3-yl]-1H-indole] | 25.7 | 9.8

Now from value to molecule:

inhibition at 0.01 µM [1] [%] | inhibition at 1 µM [2] [%] | Structure (SMILES)
16.3 | 32.9 | NS(=O)(=O)c1ccc(-n2nc(C(F)(F)F)nc2-c2ccc3ccccc3c2)cc1 [Example 16, 4-[5-(naphthalene-2-yl)-3-trifluoromethyl-1,2,4-triazole-1-yl]benzenesulfonamide]
23.3 | 10.6 | CS(=O)(=O)c1ccc(-n2nc(C(F)(F)F)nc2-c2ccc3ccccc3c2)nc1 [Example 17, 5-methanesulfonyl-2-[5-(naphthalene-2-yl)-3-trifluoromethyl-1,2,4-triazole-1-yl]pyridine]
12.3 | 26.2 | CS(=O)(=O)c1ccc(-n2nc(C(F)(F)F)nc2-c2ccc3ccccc3c2)cc1 [Example 10, 1-(4-methylsulfonylphenyl)-5-(naphthalene-2-yl)-3-trifluoromethyl-1H-1,2,4-triazole]
